This note sets out measurements from patent publication US20080200404A1, “Novel Antimalarial 9A-Carbamoyl-Aminoalkyl and 9A-Thiocarbamoyl-Aminoalkyl Azalides” (priority 2005, published 2008).

Values after ≈ are worked out from the molar mass of the structure shown. Where two headings read alike, the source gives them in different places.

Holding throughout (format): cell-based
Test [1] relates to Plasmodium falciparum clone CDC/Indochina III (W-2). Put plainly: In vitro antimalarial [3H]-hypoxanthine incorporation serial dilution assay, W2. Particulars: Plasmodium falciparum; P. falciparum W2, 72 hours exposure. An excerpt:
(§1) The in vitro screens for intrinsic antimalarial activity were based on modifications of the procedures described by Desjardins R E, Canfield C J, Haynes J D, Chulay J D. (Quantitative assessment of antimalarial activity in vitro by a semiautomated microdilution technique. Antimicrob Agents Chemother. 1979 December; 16(6):710-8.), Chulay J D, Haynes J D, Diggs C L. (Plasmodium falciparum: Assessment of in vitro growth by [3H]hypoxanthine incorporation. Exp. Parasitol. 1983 55:138-146.), and Milhous W K, Weatherly N F, Bowdre J H, Desjardins R E. (In vitro activities of and mechanisms of resistance to antifol antimalarial drugs. Antimicrob Agents Chemother. 1985 April; 27(4):525-30.). The system was limited to the assessment of the intrinsic activity against the erythrocytic asexual life cycle (blood schizontocides). Two Plasmodium falciparum clones from CDC/Indochina III (W-2) and CDC/Sierra Leone I (D-6) (Oduola A M, Weatherly N F, Bowdre J H, Desjardins R E. Plasmodium falciparum: cloning by single-erythrocyte micromanipulation and heterogeneity in vitro. Exp Parasitol. 1988 66(1):86-95.) were used for all assays. TM91C235, a multiple drug resistant isolate from Thailand, was used for the prescreening assay. W-2 is resistant to chloroquine, quinine, and pyrimethamine and susceptible to mefloquine. D-6 tends to be more resistant to mefloquine and susceptible to chloroquine, quinine, and pyrimethamine. All documents cited in this paragraph are incorporated by reference in their entirety.
(§2) All parasites were maintained in continuous long term cultures in RPMI-1640 medium supplemented with 6% washed human A positive (A+)(erythrocytes, 25 mM Hepes, […], and 10% heat inactivated A+human plasma or ALBUMAX® (lipid-rich bovine serum albumin; Invitrogen, Carlsbad, Calif.). All cultures and assays were conducted at 37° C. under an atmosphere of 5% CO2 and 5% O2, with a balance of N2.
(§3) After the preincubation, [^3H]-hypoxanthine was added to each well of the MTP. (The assay relies on the incorporation of radiolabeled hypoxanthine by the parasites, which indicates reproduction, and inhibition of isotope incorporation was attributed to activity of known or candidate antimalarial drugs). After 72 hr of total incubation time, the MTP were frozen to lyse the erythrocytes and parasites. The parasite DNA was recovered by harvesting the lysate onto glass-fiber filter plates using a Packard FilterMate™ Cell Harvester. The radioactivity was counted on a Packard TopCount™ microplate scintillation counter. The results were recorded as counts per minutes (CPM) per well at each drug concentration divided by the arithmetic mean of the CPM from the three untreated infection parasite control wells.
(§4) The serial dilution assay was conducted using the same assay conditions and stock solution of the compound used for the preliminary screen, described above. Both the D-6 and the W-2 clones were used. The compounds were diluted two-fold over 11 different concentration ranges with a starting concentration that was based on the preliminary screen. For each drug, the concentration response profile was determined and 50% inhibitory concentrations (IC50) were determined by using a non-linear, logistic dose response analysis program. […] For each assay, the IC50 for each clone was determined against the known antimalarials chloroquine and mefloquine. These control values established the compound's relative parasite susceptibility profile compared to known antimalarials. […]
(§5) The in vitro potency of the compounds has been compared with that of azithromycin to better gauge compounds suitable for further testing. As described above, parasites were exposed for 72 hours. Data from the in vitro potency tests of azithromycin against the three parasite strains have been averaged, and these numbers have been used for identification of “active” macrolide compounds.

In test [2] the test system is Plasmodium falciparum TM91C235. Put plainly: In vitro antimalarial [3H]-hypoxanthine incorporation assay, TM91C235. Particulars: Plasmodium falciparum; P. falciparum TM91C235 (multiple drug resistant isolate), 72 hours exposure.
Source text: as §1, §2
The prescreening assay uses TM91C235 diluted at a 0.4% parasitemia in a 1% hematocrit in folic acid free and p-aminobenzoic acid free media RPMI-1640 and ALBUMAX®. One mg of the compound is typically dissolved in 100 μl of dimethyl sulfoxide (DMSO). The compound is further diluted in culture medium (FF) with ALBUMAX® for the first initial starting concentration. The rest of the stock drug solution was kept at −70° C. The isolate was preexposed, in duplicate, at three concentrations (25,000 ng/ml, 2,500 ng/ml, and 25 ng/ml) of the test compound for 48 hr in a 96-well microtiter plate (MTP) using the BIOMEK® 2000 automated laboratory workstation. Each MTP contains chloroquine as control to assess the relative activity of the compound and to monitor the response of TM91C235.
as §3
The serial dilution assay was conducted using the same assay conditions and stock solution of the compound used for the preliminary screen, described above. Both the D-6 and the W-2 clones were used. The compounds were diluted two-fold over 11 different concentration ranges with a starting concentration that was based on the preliminary screen. […]

Test [3] has as its system Plasmodium falciparum clone CDC/Sierra Leone I (D-6). Put plainly: In vitro antimalarial [3H]-hypoxanthine incorporation serial dilution assay, D6. As to conditions: Plasmodium falciparum, D6, 72 h, P. falciparum D6, 72 hours exposure.
Source text: as §1, §2, §3, §4, §5

Setting [4] is: compared with azithromycin, read-out: IC50 D6 (class symbol).

For `CC[C@H]1OC(=O)[C@H](C)[C@@H](O[C@H]2C[C@@](C)(OC)[C@@H](O)[C@H](C)O2)[C@H](C)[C@@H](O[C@@H]2O[C@H](C)C[C@H](N(C)C)[C@H]2O)[C@](C)(O)C[C@@H](C)CN(CCCNC(=O)Nc2ccc3c(c2)OCCCO3)[C@H](C)[C@@H](O)[C@]1(C)O.O=CO` [Example 84], the IC50 (usually the concentration that inhibits the measured activity by half) was determined as 0.042 µg/mL in test [1], 0.0618 µg/mL in test [2] and 0.0289 µg/mL in test [3] (read-out: IC50 D6).
The matching figures for `CC[C@H]1OC(=O)[C@H](C)[C@@H](O[C@H]2C[C@@](C)(OC)[C@@H](O)[C@H](C)O2)[C@H](C)[C@@H](O[C@@H]2O[C@H](C)C[C@H](N(C)C)[C@H]2O)[C@](C)(O)C[C@@H](C)CN(CCCNC(=S)Nc2ccc(C)cc2)[C@H](C)[C@@H](O)[C@]1(C)O` [Example 97]: 0.0671 µg/mL (≈ 0.0713 µM), 0.154 µg/mL (≈ 0.164 µM) and 0.311 µg/mL (≈ 0.33 µM).
`CC[C@H]1OC(=O)[C@H](C)[C@@H](O[C@H]2C[C@@](C)(OC)[C@@H](O)[C@H](C)O2)[C@H](C)[C@@H](O[C@@H]2O[C@H](C)C[C@H](N(C)C)[C@H]2O)[C@](C)(O)C[C@@H](C)CN(CCCNC(=O)NC(C)(C)C)[C@H](C)[C@@H](O)[C@]1(C)O` [Example 53]: the IC50 in test [1] was 0.366 µg/mL (≈ 0.41 µM); in test [2], 0.713 µg/mL (≈ 0.8 µM); in test [3] (setting [4]), greater than 0.797 µg/mL.
Take `CC[C@H]1OC(=O)[C@H](C)[C@@H](O[C@H]2C[C@@](C)(OC)[C@@H](O)[C@H](C)O2)[C@H](C)[C@@H](O[C@@H]2O[C@H](C)C[C@H](N(C)C)[C@H]2O)[C@](C)(O)C[C@@H](C)CN(CCCNC(=S)Nc2ccc(OC)cc2)[C@H](C)[C@@H](O)[C@]1(C)O` [Example 102]: the IC50 in test [1] amounted to 0.0737 µg/mL (≈ 0.077 µM); in test [2], 0.201 µg/mL (≈ 0.209 µM); in test [3] (read-out: IC50 D6) it was 0.46 µg/mL (≈ 0.48 µM).
Taken in the same sequence, the figures for `CC[C@H]1OC(=O)[C@H](C)[C@@H](O[C@H]2C[C@@](C)(OC)[C@@H](O)[C@H](C)O2)[C@H](C)[C@@H](O[C@@H]2O[C@H](C)C[C@H](N(C)C)[C@H]2O)[C@](C)(O)C[C@@H](C)CN(CCCNC(=O)Nc2c(C)noc2-c2ccccc2)[C@H](C)[C@@H](O)[C@]1(C)O.O=CO` [Example 90] were 0.762 µg/mL, 0.511 µg/mL and 0.972 µg/mL.
As for `C=CCNC(=S)NCCCN1C[C@H](C)C[C@@](C)(O)[C@H](O[C@@H]2O[C@H](C)C[C@H](N(C)C)[C@H]2O)[C@@H](C)[C@H](O[C@H]2C[C@@](C)(OC)[C@@H](O)[C@H](C)O2)[C@@H](C)C(=O)O[C@H](CC)[C@@](C)(O)[C@H](O)[C@H]1C` [Example 111], the figures for the IC50 in test [1], in test [2] and in test [3] (setting [4]) were 0.246 µg/mL (≈ 0.276 µM), 0.459 µg/mL (≈ 0.514 µM) and greater than 0.797 µg/mL, respectively.
Regarding `CC[C@H]1OC(=O)[C@H](C)[C@@H](O[C@H]2C[C@@](C)(OC)[C@@H](O)[C@H](C)O2)[C@H](C)[C@@H](O[C@@H]2O[C@H](C)C[C@H](N(C)C)[C@H]2O)[C@](C)(O)C[C@@H](C)CN(CCCNC(=S)Nc2ccc(Cl)cc2)[C@H](C)[C@@H](O)[C@]1(C)O` [Example 103], the IC50 in test [1] was found to be 0.0514 µg/mL (≈ 0.0534 µM); in test [2] it was 0.103 µg/mL (≈ 0.108 µM); in test [3] (read-out: IC50 D6), 0.18 µg/mL (≈ 0.188 µM).
In the case of `CC[C@H]1OC(=O)[C@H](C)[C@@H](O[C@H]2C[C@@](C)(OC)[C@@H](O)[C@H](C)O2)[C@H](C)[C@@H](O[C@@H]2O[C@H](C)C[C@H](N(C)C)[C@H]2O)[C@](C)(O)C[C@@H](C)CN(CCCNC(=S)NC2CC2)[C@H](C)[C@@H](O)[C@]1(C)O` [Example 113], the IC50 in test [1] is 0.605 µg/mL (≈ 0.679 µM); in test [2], 0.866 µg/mL (≈ 0.972 µM); in test [3] (setting [4]), greater than 0.797 µg/mL.
In the case of `CCc1ccc(NC(=O)NCCCN2C[C@H](C)C[C@@](C)(O)[C@H](O[C@@H]3O[C@H](C)C[C@H](N(C)C)[C@H]3O)[C@@H](C)[C@H](O[C@H]3C[C@@](C)(OC)[C@@H](O)[C@H](C)O3)[C@@H](C)C(=O)O[C@H](CC)[C@@](C)(O)[C@H](O)[C@H]2C)cc1` [Example 60], the values for the IC50 in test [1], in test [2] and in test [3] (read-out: IC50 D6) were 0.0693 µg/mL (≈ 0.0738 µM), 0.0933 µg/mL (≈ 0.0993 µM) and 0.212 µg/mL (≈ 0.226 µM), respectively.
Taken in the same sequence, the figures for `CC[C@H]1OC(=O)[C@H](C)[C@@H](O[C@H]2C[C@@](C)(OC)[C@@H](O)[C@H](C)O2)[C@H](C)[C@@H](O[C@@H]2O[C@H](C)C[C@H](N(C)C)[C@H]2O)[C@](C)(O)C[C@@H](C)CN(CCCNC(=S)Nc2ccc(N(CC)CC)cc2)[C@H](C)[C@@H](O)[C@]1(C)O.O=CO` [Example 121] were 0.714 µg/mL, 0.312 µg/mL and 0.799 µg/mL.
On to `CCCCNC(=S)NCCCN1C[C@H](C)C[C@@](C)(O)[C@H](O[C@@H]2O[C@H](C)C[C@H](N(C)C)[C@H]2O)[C@@H](C)[C@H](O[C@H]2C[C@@](C)(OC)[C@@H](O)[C@H](C)O2)[C@@H](C)C(=O)O[C@H](CC)[C@@](C)(O)[C@H](O)[C@H]1C.O=CO` [Example 96], for which the IC50 was determined as 0.179 µg/mL in test [1], 0.364 µg/mL in test [2] and 0.625 µg/mL in test [3] (read-out: IC50 D6).
As for `CC[C@H]1OC(=O)[C@H](C)[C@@H](O[C@H]2C[C@@](C)(OC)[C@@H](O)[C@H](C)O2)[C@H](C)[C@@H](O[C@@H]2O[C@H](C)C[C@H](N(C)C)[C@H]2O)[C@](C)(O)C[C@@H](C)CN(CCCNC(=S)Nc2cc(-c3ccccc3)ccc2OC)[C@H](C)[C@@H](O)[C@]1(C)O` [Example 127], the IC50 in test [1] turned out to be 0.117 µg/mL (≈ 0.114 µM); in test [2] it was 0.0571 µg/mL (≈ 0.0553 µM); in test [3] (read-out: IC50 D6), 0.06 µg/mL (≈ 0.0581 µM).
The matching figures for `CC[C@H]1OC(=O)[C@H](C)[C@@H](O[C@H]2C[C@@](C)(OC)[C@@H](O)[C@H](C)O2)[C@H](C)[C@@H](O[C@@H]2O[C@H](C)C[C@H](N(C)C)[C@H]2O)[C@](C)(O)C[C@@H](C)CN(CCCNC(=O)Nc2ccccc2-c2ccccc2)[C@H](C)[C@@H](O)[C@]1(C)O.O=CO` [Example 85]: 0.209 µg/mL, 0.142 µg/mL and 0.262 µg/mL.
For `CC[C@H]1OC(=O)[C@H](C)[C@@H](O[C@H]2C[C@@](C)(OC)[C@@H](O)[C@H](C)O2)[C@H](C)[C@@H](O[C@@H]2O[C@H](C)C[C@H](N(C)C)[C@H]2O)[C@](C)(O)C[C@@H](C)CN(CCCN(CCC(N)=O)C(=S)NCCc2ccccc2)[C@H](C)[C@@H](O)[C@]1(C)O` [Example 166, 9-Deoxo-9-dihydro-9a-{N′-(β-amidoethyl)-N′-[β-(phenylethyl)thiocarbamoyl]-γ-aminopropyl}-9a-aza-9a-homoerythromycin A], the IC50 in test [1] amounted to 0.23 µg/mL (≈ 0.224 µM); in test [2], 0.161 µg/mL (≈ 0.157 µM); in test [3] (read-out: IC50 D6), 0.458 µg/mL (≈ 0.446 µM).
As to `CC[C@H]1OC(=O)[C@H](C)[C@@H](O[C@H]2C[C@@](C)(OC)[C@@H](O)[C@H](C)O2)[C@H](C)[C@@H](O[C@@H]2O[C@H](C)C[C@H](N(C)C)[C@H]2O)[C@](C)(O)C[C@@H](C)CN(CCCNC(=O)Nc2ccc(OC)c(OC3CCCC3)c2)[C@H](C)[C@@H](O)[C@]1(C)O` [Example 86], the figures for the IC50 in test [1], in test [2] and in test [3] (read-out: IC50 D6) were 0.207 µg/mL (≈ 0.201 µM), 0.142 µg/mL (≈ 0.138 µM) and 0.457 µg/mL (≈ 0.445 µM), respectively.
